Source: PubChem BioAssay AID1963873 (Molecular Pharmacology Branch, DTP, NCI, 2024)

System: 276233-004-R-J1-PDC KRAS spheroids with HUVEC/MSC, viability
Experiment: Anticancer human tumor 276233-004-R-J1-PDC patient-derived colon adenocarcinoma cell line growth inhibition [KRAS2]
Conditions: for IC50: curve of first compound; for viability, T/C: stronger effect = lower value
Method in brief: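 KRAS-mutant tumor cells were grown as spheroids with HUVEC endothelial cells and human MSCs as stroma. Targeted agents were tested alone and with KRAS pathway inhibitors. Doses started at or near clinical Cmax, or 10 microM, descending half-log.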

[1] = second compound 0.1 µM, first compound 0.0316 µM
[2] = second compound 0.1 µM, first compound 0.1 µM
[3] = second compound 0.1 µM, first compound 0.316 µM
[4] = second compound 0.1 µM, first compound 1 µM
[5] = second compound 0.1 µM, first compound 3.16 µM
[6] = second compound 0.1 µM, first compound 10 µM
[7] = second compound 0.316 µM, first compound 0.0316 µM
[8] = second compound 0.316 µM, first compound 0.1 µM
[9] = second compound 0.316 µM, first compound 0.316 µM
[10] = second compound 0.316 µM, first compound 1 µM
[11] = second compound 0.316 µM, first compound 3.16 µM
[12] = second compound 0.316 µM, first compound 10 µM
[13] = second compound 1 µM, first compound 0.0316 µM
[14] = second compound 1 µM, first compound 0.1 µM
[15] = second compound 1 µM, first compound 0.316 µM
[16] = second compound 1 µM, first compound 1 µM
[17] = second compound 1 µM, first compound 3.16 µM
[18] = second compound 1 µM, first compound 10 µM
[19] = second compound 3.16 µM, first compound 0.0316 µM
[20] = second compound 3.16 µM, first compound 0.1 µM
[21] = second compound 3.16 µM, first compound 0.316 µM
[22] = second compound 3.16 µM, first compound 1 µM
[23] = second compound 3.16 µM, first compound 3.16 µM
[24] = second compound 3.16 µM, first compound 10 µM
[25] = second compound 10 µM, first compound 0.0316 µM
[26] = second compound 10 µM, first compound 0.1 µM
[27] = second compound 10 µM, first compound 0.316 µM
[28] = second compound 10 µM, first compound 1 µM
[29] = second compound 10 µM, first compound 3.16 µM
[30] = second compound 10 µM, first compound 10 µM
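Note: cells exposed to agents for seven days before viability read.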
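Throughout, for viability, T/C: 100% = DMSO vehicle control wells and lower values mean fewer viable cells.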

Row | Compound | IC50 (second compound 0.1 µM) [nM] | IC50 (second compound 0.316 µM) [nM] | IC50 (second compound 1 µM) [nM] | IC50 (second compound 3.16 µM) [nM] | viability, T/C [1] [%] | viability, T/C [2] [%] | viability, T/C [3] [%] | viability, T/C [4] [%] | viability, T/C [5] [%] | viability, T/C [6] [%] | viability, T/C [7] [%] | viability, T/C [8] [%] | viability, T/C [9] [%] | viability, T/C [10] [%] | viability, T/C [11] [%] | viability, T/C [12] [%] | viability, T/C [13] [%] | viability, T/C [14] [%] | viability, T/C [15] [%] | viability, T/C [16] [%] | other results
1 | CC1OCC2(CCN(c3cnc(Sc4ccnc(N)c4Cl)c(N)n3)CC2)C1N (stereo not given) + COc1cc2nc(C)nc(NC(C)c3cc(N)cc(C(F)(F)F)c3)c2cc1OC1CCOC1 | > 10000 | > 10000 | > 10000 | 5250 | 93.6 | 100 | 70.5 | 78 | 62.9 | 51.7 | 109 | 79 | 78.5 | 62.7 | 61.8 | 57.2 | 91.5 | 86.9 | 81.4 | 80.4 | IC50 (second compound 10 µM): 41.1 nM; viability, T/C [17]: 55.1%; viability, T/C [18]: 50.8%; viability, T/C [19]: 85.8%; viability, T/C [20]: 77.8%; viability, T/C [21]: 71.8%; viability, T/C [22]: 70%; viability, T/C [23]: 54%; viability, T/C [24]: 42.7%; viability, T/C [25]: 52.4%; viability, T/C [26]: 44.1%; viability, T/C [27]: 34.4%; viability, T/C [28]: 33.9%; viability, T/C [29]: 24.2%; viability, T/C [30]: 18.7%
2 | CC1(C)CCC(CN2CCN(c3ccc(C(=O)NS(=O)(=O)c4ccc(NCC5CCOCC5)c([N+](=O)[O-])c4)c(Oc4cnc5[nH]ccc5c4)c3)CC2)=C(c2ccc(Cl)cc2)C1 + COc1cc2nc(C)nc(NC(C)c3cc(N)cc(C(F)(F)F)c3)c2cc1OC1CCOC1 | > 10000 | > 10000 | > 10000 | > 10000 | 97.5 | 97 | 73.6 | 95.5 | 68.8 | 69.7 | 104 | 84.8 | 95.9 | 96.3 | 67 | 72.8 | 102 | 87.3 | 89.6 | 87.3 | IC50 (second compound 10 µM): < 31.6 nM; viability, T/C [17]: 70.1%; viability, T/C [18]: 60.6%; viability, T/C [19]: 79.1%; viability, T/C [20]: 120%; viability, T/C [21]: 81.8%; viability, T/C [22]: 103%; viability, T/C [23]: 78.3%; viability, T/C [24]: 57.8%; viability, T/C [25]: 23.9%; viability, T/C [26]: 31.8%; viability, T/C [27]: 25%; viability, T/C [28]: 41.3%; viability, T/C [29]: 38.8%; viability, T/C [30]: 54.8%
3 | CCNC(=O)CC1N=C(c2ccc(Cl)cc2)c2cc(OC)ccc2-n2c(C)nnc21 (stereo not given) + COc1cc2nc(C)nc(NC(C)c3cc(N)cc(C(F)(F)F)c3)c2cc1OC1CCOC1 | > 10000 | 2460 | 1190 | 2340 | 101 | 67.1 | 61.4 | 55 | 50.4 | 49.2 | 94.6 | 80.2 | 69.5 | 54.5 | 45.7 | 48.2 | 84.7 | 77.7 | 60.3 | 42.7 | IC50 (second compound 10 µM): < 31.6 nM; viability, T/C [17]: 44%; viability, T/C [18]: 34.4%; viability, T/C [19]: 62.3%; viability, T/C [20]: 69.7%; viability, T/C [21]: 62.2%; viability, T/C [22]: 50.8%; viability, T/C [23]: 46%; viability, T/C [24]: 43.2%; viability, T/C [25]: 31.6%; viability, T/C [26]: 33.9%; viability, T/C [27]: 22.6%; viability, T/C [28]: 12.9%; viability, T/C [29]: 11.1%; viability, T/C [30]: 8.17%
4 | CC1OCC2(CCN(c3cnc(Sc4ccnc(N)c4Cl)c(N)n3)CC2)C1N (stereo not given) + C=CC(=O)N1CCN(c2nc(OCC3CCCN3C)nc3c2CCN(c2cccc4cccc(C)c24)C3)CC1CC#N | > 10000 | > 10000 | 9490 | 521 | 98.2 | 85 | 81.5 | 69.3 | 68.7 | 56.3 | 102 | 98.7 | 83.4 | 76.7 | 67 | 55.3 | 98.2 | 84.7 | 81.2 | 83.5 | IC50 (second compound 0.0316 µM): > 10000 nM; viability, T/C (second compound 0.0316 µM, first compound 0.0316 µM): 105%; viability, T/C (second compound 0.0316 µM, first compound 0.1 µM): 90.5%; viability, T/C (second compound 0.0316 µM, first compound 0.316 µM): 91.2%; viability, T/C (second compound 0.0316 µM, first compound 1 µM): 85.7%; viability, T/C (second compound 0.0316 µM, first compound 3.16 µM): 70.2%; viability, T/C (second compound 0.0316 µM, first compound 10 µM): 59.8%; viability, T/C [17]: 63.5%; viability, T/C [18]: 49%; viability, T/C [19]: 69.1%; viability, T/C [20]: 60.4%; viability, T/C [21]: 58.2%; viability, T/C [22]: 39.7%; viability, T/C [23]: 35.9%; viability, T/C [24]: 39%
5 | CC(C)NCC(C(=O)N1CCN(c2ncnc3c2C(C)CC3O)CC1)c1ccc(Cl)cc1 (stereo not given) + COc1cc2nc(C)nc(NC(C)c3cc(N)cc(C(F)(F)F)c3)c2cc1OC1CCOC1 | 1780 | 1110 | 1240 | 700 | 75.5 | 79.9 | 73.6 | 56.6 | 35.8 | 51.2 | 89.3 | 78.6 | 62.7 | 57.8 | 32.6 | 38.8 | 67.4 | 76.3 | 70.3 | 55.4 | IC50 (second compound 10 µM): < 31.6 nM; viability, T/C [17]: 26.2%; viability, T/C [18]: 27.4%; viability, T/C [19]: 80.7%; viability, T/C [20]: 75.6%; viability, T/C [21]: 78.2%; viability, T/C [22]: 37.3%; viability, T/C [23]: 29.9%; viability, T/C [24]: 38.8%; viability, T/C [25]: 35.6%; viability, T/C [26]: 16.1%; viability, T/C [27]: 13.9%; viability, T/C [28]: 7.24%; viability, T/C [29]: 4.57%; viability, T/C [30]: 6.8%
